Assays:
Assay in all cases: relative viability (nuclei count vs DMSO), 5 days (fraction); higher = more cells survive
[1] = compound: O=C(C[C@H]1NCCC[C@@H]1O)Cn1cnc2cc(Br)c(Cl)cc2c1=O (racemic) [Halofuginone] + Nc1ncn([C@H]2C[C@H](O)[C@@H](CO)O2)c(=O)n1 [Decitabine] (partner 2 µM)
In short: (§1)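 Relative viability divides the nuclei count in treated wells by that in vehicle wells. Lung cancer cell lines were seeded in 1536-well plates, dosed by pin tool the next day, and fixed and stained after 5 days in one step with final 0.05% Triton X-100, 1% formaldehyde and 1 ug/ml Hoechst. Dosing was a single drug or a fixed anchor-drug dose plus five library-drug doses (not always all listed) in √10 steps, and values are medians of duplicate plates imaged at 4×.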

[2] = compound: O=C(C[C@H]1NCCC[C@@H]1O)Cn1cnc2cc(Br)c(Cl)cc2c1=O (racemic) [Halofuginone] + CC1(C)CCC(c2ccc(Cl)cc2)=C(CN2CCN(c3ccc(C(=O)NS(=O)(=O)c4ccc(N[C@H](CCN5CCOCC5)CSc5ccccc5)c(S(=O)(=O)C(F)(F)F)c4)cc3)CC2)C1 [Navitoclax] (partner 0.5 µM)
In short: as §1

Cediranib + Crizotinib = compound: COc1cc2c(Oc3ccc4[nH]c(C)cc4c3F)ncnc2cc1OCCCN1CCCC1 [Cediranib] + C[C@@H](Oc1cc(-c2cnn(C3CCNCC3)c2)cnc1N)c1c(Cl)ccc(F)c1Cl [Crizotinib] (partner 1 µM)
In short: as §1

[3] = compound: O=C(C[C@H]1NCCC[C@@H]1O)Cn1cnc2cc(Br)c(Cl)cc2c1=O (racemic) [Halofuginone] + CC(C)C[C@H](NC(=O)[C@H](Cc1ccccc1)NC(=O)c1cnccn1)B(O)O [Bortezomib] (partner 0.002 µM)
In short: as §1

Cell Line | relative viability ([1]; first compound 0.001 µM) | relative viability ([1]; first compound 0.003162 µM) | relative viability ([1]; first compound 0.01 µM) | relative viability ([1]; first compound 0.03162 µM) | relative viability ([1]; first compound 0.1 µM) | relative viability ([2]; first compound 0.001 µM) | relative viability ([2]; first compound 0.003162 µM) | relative viability ([2]; first compound 0.01 µM) | relative viability ([2]; first compound 0.03162 µM) | relative viability ([2]; first compound 0.1 µM) | relative viability (Cediranib + Crizotinib; first compound 0.04 µM) | relative viability (Cediranib + Crizotinib; first compound 0.4 µM) | relative viability (Cediranib + Crizotinib; first compound 1.265 µM) | relative viability (Cediranib + Crizotinib; first compound 4 µM) | relative viability ([3]; first compound 0.001 µM) | relative viability ([3]; first compound 0.003162 µM) | relative viability ([3]; first compound 0.01 µM) | relative viability ([3]; first compound 0.03162 µM) | relative viability ([3]; first compound 0.1 µM) | relative viability (Cediranib + Crizotinib; first compound 0.1265 µM)
LCLC-97TM1 | 0.263 | 0.222 | 0.203 | 0.19 | 0.227 | 0.501 | 0.476 | 0.363 | 0.327 | 0.212 | 0.272 | 0.352 | 0.47 | 0.363 | 0.49 | 0.365 | 0.512 | 0.144 | 0.179 | 
LC-2-ad | 0.7 | 0.857 | 0.806 | 0.892 | 0.687 | 0.555 | 0.469 | 0.43 | 0.459 | 0.101 | 0.462 | 0.366 | 0.474 | 0.419 | 1.3 | 1.08 | 0.972 | 1.01 | 0.667 | 0.425
HOP-62 | 0.233 | 0.224 | 0.194 | 0.206 | 0.199 | 1.14 | 0.785 | 0.933 | 1.04 | 0.873 | 0.802 | 0.886 | 0.858 | 1.1 | 0.679 | 0.702 | 0.62 | 0.632 | 0.522 | 
NCI-H2347 | 0.595 | 0.676 | 0.567 | 0.65 | 0.659 | 0.814 | 0.838 | 0.859 | 0.845 | 0.589 | 0.672 | 0.794 | 0.865 | 0.675 | 1.24 | 1.09 | 0.758 | 1.03 | 0.852 | 0.698
NCI-H2087 | 0.3 | 0.356 | 0.308 | 0.27 | 0.228 | 1.01 | 1.09 | 0.94 | 0.799 | 0.682 | 0.926 | 0.807 | 0.838 | 0.912 | 0.758 | 0.839 | 0.86 | 0.676 | 0.917 | 0.868
EPLC-272H | 0.421 | 0.4 | 0.39 | 0.436 | 0.351 | 1.14 | 1.22 | 0.945 | 1.21 | 1.17 | 0.735 | 0.945 | 1.04 | 0.906 | 0.772 | 1.09 | 0.918 | 0.98 | 0.779 | 
LXF-289 | 0.395 | 0.393 | 0.383 | 0.418 | 0.381 | 0.94 | 0.965 | 0.859 | 0.973 | 0.865 | 0.831 | 0.782 | 0.838 | 0.804 | 0.928 | 1.08 | 0.985 | 0.996 | 0.908 | 0.727
COR-L23 | 0.518 | 0.511 | 0.421 | 0.465 | 0.217 | 1.03 | 1.1 | 1.03 | 0.976 | 0.126 | 0.696 | 0.654 | 0.703 | 0.68 | 1.15 | 1.1 | 0.963 | 0.965 | 0.184 | 0.749
